Data from ChEMBL document CHEMBL1154488, “Synthesis, structure elucidation and antibacterial evaluation of new steroidal -5-en-7-thiazoloquinoxaline derivatives” (2008).
≈ marks a conversion by molar mass, not a printed value.

Tests used:
Type in all cases: functional
Escherichia coli [1] = assay: Antibacterial activity against Escherichia coli after 18 hrs by macrodilution test
Escherichia coli [2] = assay: Antibacterial activity against Escherichia coli after 18 hrs by disk diffusion method
Escherichia coli [3] = assay: Antibacterial activity against Escherichia coli at 30 ug/disk after 18 hrs by disk diffusion method; details: read-out: IZ

Compound	MIC (Escherichia coli [1]) [µg/mL]	inhibition zone (IZ) (Escherichia coli [2]) [mm]	zone of inhibition at 30 µg/disc (Escherichia coli [3]) [mm]
Clc1nc2ccccc2nc1Cl	512 (≈ 2570 µM)	6.2	–
CC(C)CCC[C@@H](C)[C@H]1CC[C@H]2[C@@H]3/C(=N/Nc4nc5nc6ccccc6nc5s4)C=C4C[C@@H](Cl)CC[C@]4(C)[C@H]3CC[C@]12C	32 (≈ 51.8 µM)	22.4	–
CC(C)CCC[C@@H](C)[C@H]1CC[C@H]2[C@@H]3/C(=N/NC(N)=S)C=C4CCCC[C@]4(C)[C@H]3CC[C@]12C	256 (≈ 559 µM)	9.8	–
CC(=O)O[C@H]1CC[C@@]2(C)C(=C/C(=N\NC(N)=S)[C@H]3[C@@H]4CC[C@H]([C@H](C)CCCC(C)C)[C@@]4(C)CC[C@@H]32)C1	128 (≈ 248 µM)	13.2	–
CC(C)CCC[C@@H](C)[C@H]1CC[C@H]2[C@@H]3/C(=N/Nc4nc5nc6ccccc6nc5s4)C=C4CCCC[C@]4(C)[C@H]3CC[C@]12C	128 (≈ 219 µM)	14	–
CC(=O)O[C@H]1CC[C@@]2(C)C(=C/C(=N\Nc3nc4nc5ccccc5nc4s3)[C@H]3[C@@H]4CC[C@H]([C@H](C)CCCC(C)C)[C@@]4(C)CC[C@@H]32)C1	64 (≈ 99.7 µM)	20.8	–
CC(C)CCC[C@@H](C)[C@H]1CC[C@H]2[C@@H]3/C(=N/NC(N)=S)C=C4C[C@@H](Cl)CC[C@]4(C)[C@H]3CC[C@]12C	64 (≈ 130 µM)	14.8	–
O=C(N[C@H](CO)[C@H](O)c1ccc([N+](=O)[O-])cc1)C(Cl)Cl [CHLORAMPHENICOL]	32 (≈ 99 µM)	–	20
CC(C)CCC[C@@H](C)[C@H]1CC[C@H]2[C@@H]3CC=C4C[C@@H](O)CC[C@]4(C)[C@H]3CC[C@]12C [CHOLESTEROL]	512 (≈ 1320 µM)	5.8	–
